The values that follow come from patent US11858913B2, “Bicyclic pyridazinones and methods of use thereof” (ALIGOS THERAPEUTICS, INC., priority 2020, dated 2024).

Bounds are passed on as bounds.

As a reminder, the EC50 is the concentration at which the effect is half-maximal.

The test addresses T1, human thyroid receptor beta ligand-binding domain (LBD) (Homo sapiens, UniProt P10828).
T1 construct: purchased Invitrogen
T1 sequence (P10828 217-461 limits assumed): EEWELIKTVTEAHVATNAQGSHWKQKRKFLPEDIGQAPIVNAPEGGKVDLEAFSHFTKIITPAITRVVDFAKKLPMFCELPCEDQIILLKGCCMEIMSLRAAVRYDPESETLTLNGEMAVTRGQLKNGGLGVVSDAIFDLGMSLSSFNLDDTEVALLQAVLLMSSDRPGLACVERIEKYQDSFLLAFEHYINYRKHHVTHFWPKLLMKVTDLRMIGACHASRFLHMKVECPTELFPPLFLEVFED
As to the kind of experiment: THR Biochemical Assay (Assay 1): TR-FRET thyroid receptor beta coactivator assay. The conditions noted are these: GST-tagged THR-beta LBD 1 nM, fluorescein SRC2-2 coactivator peptide 200 nM, 1 hr at rt, TR-FRET ratio 520:495; read-out: Assay 1 (EC50, THR-beta agonist activity). An excerpt: The TR-FRET thyroid receptor beta coactivator assay was used with slight, optimized modifications of the manufacturer's protocol (Invitrogen). The assay uses a terbium-labeled anti-GST antibody, a glutathione-S-transferase (GST) tagged human thyroid receptor, beta or alpha, ligand-binding domain (LBD), and a fluorescein labeled SRC2-2 coactivator peptide. The antibody interacts with the LBD, where the agonist also binds, resulting in increased affinity for the SRC2-2 coactivator peptide causing energy transfer […] the acceptor fluorophore and a FRET emission shift from 495 to 520 nm. The energy transfer was detected as an increase in the fluorescence emission of the fluorescein acceptor, and a decrease in the fluorescence emission of the terbium donor. The assay was performed in a 384-well black plate in a final volume of 20 μL. Serial dilution of various test agonists was performed in DMSO (1% final DMSO concentration) and added to the test plate. […] The TR-FRET was then measured on a Victor multilabel reader (Perkin Elmer) using an excitation wavelength of 340 nm with emission filters of 495 nm and 520 nm. The assay was quantified by expressing a ratio (520:495) of the intensities, and the resulting activation curves; EC50 values were generated using a sigmoidal dose response (variable slope) equation in GraphPad™ Prism 8.0.
(In general: In TR-FRET formats the signal depends on donor and acceptor labels being close together.)

For `CC1CCc2c(Oc3c(Cl)cc(-n4nc(N)c(=O)[nH]c4=O)cc3Cl)n[nH]c(=O)c21` (single isomer, unassigned) [Compound 1a, 6-amino-2-(3,5-dichloro-4-((7-methyl-1-oxo-2,5,6,7-tetrahydro-1H-cyclopenta[d]pyridazin-4-yl)oxy)phenyl)-1,2,4-triazine-3,5(2H,4H)-dione], the 50% effective concentration (EC50) was below 50 nM.

With `CC1CCc2c(Oc3c(Cl)cc(-n4nc(N)c(=O)[nH]c4=O)cc3Cl)n[nH]c(=O)c21` (single isomer, unassigned) [Compound 1b, 6-amino-2-(3,5-dichloro-4-((7-methyl-1-oxo-2,5,6,7-tetrahydro-1H-cyclopenta[d]pyridazin-4-yl)oxy)phenyl)-1,2,4-triazine-3,5(2H,4H)-dione], the EC50 was 50 to 250 nM.
